Series [1] has as its system chloroquine-resistant strain FcB1 of P. falciparum. Description: Anti-Plasmodium activity, [3H]hypoxanthine microdilution on asynchronous cultures. It is filed as cell-based, Plasmodium falciparum. The method, then: (§1) P. falciparum strains (FcB1/Colombia, K1/Thailand, F32/Tanzania, W2/Indochina) were maintained in continuous culture on human erythrocytes in RPMI medium containing 7% (v/v) heat-inactivated human serum under an atmosphere of 3% CO2, 6% O2, 91% N2, at 37°C, as described by Trager and Jensen. Parasite synchronization was performed successively by treatment with 5% (w/v) sorbitol and by concentration in gelatin solution as previously described.
(§2) Drug susceptibility assays were performed using a modification of the semi automated microdilution technique of Desjardins et al.. Stock solutions of test compounds were prepared in DMSO. Drug solutions were serially diluted twofold with 100 μl culture medium in 96-well plates. Asynchronous parasite cultures (100 μl, 1 % parasitemia and 1 % final hematocrite) were added to each well and incubated for 24 hours at 37°C prior to the addition of 0.5 μCi of [^3H] hypoxanthine (Amersham, France, 1 to 5 Ci.mmol/ml) per well. After a further incubation of 24 hour, plates were frozen and thawed. Cell lysates were then collected onto glass-filter papers and counted in a liquid scintillation spectrometer. The growth inhibition for each drug concentration was determined by comparison of the radioactivity incorporated in the treated culture with that in the control culture (having the same final % of DMSO) maintained on the same plate. The concentration causing 50% growth inhibition (IC50) and 90% growth (IC90) were obtained from the drug concentration-response curve and the results were expressed as the means ± the standard deviations determined from several independent experiments.
For orientation: Dilution methods test growth across graded concentrations, often in twofold steps.

The subject of series [2] is P. falciparum strain F32. Put plainly: Anti-Plasmodium activity, strain F32. It is filed as cell-based. The method, then:
as §1
as §2, with “The concentration causing 50% growth inhibition (IC50) and 90% growth (IC90) were obtained from the drug concentration-response curve and the results were expressed as the means ± the standard deviations determined from several independent experiments.” left out

A short description of series [3]: Cytotoxicity test upon human embryonic cells (MTT). The class given is cell-based. To be noted: human, MRC-5 human diploid embryonic lung cells; MRC-5, five days, MTT; mean of three experiments. The method, then:
(§3) A human diploid embryonic lung cell line (MRC-5, Bio-Whittaker 72211D) was used to assess the cytotoxic effects towards eukaryotic host cells. MRC-5 cells were seeded at 5,000 cells per well in 100 μl. After 24 hours, the cells were washed and two-fold dilutions of the drug were added in 200 μl standard culture medium (RPMI medium + 5% fetal calf serum) and maintained for five days under 5% CO2 atmosphere. The final DMSO concentration in the culture remained below 0.1%. Untreated cultures were included as controls. The cytotoxicity was determined using the colorimetric MTT assay according to the manufacturer's recommendations (Cell proliferation kit I, Roche Applied Science, France) and scored as a percentage of reduction in absorption at 540 nm of treated cultures versus untreated control cultures. […] The results were expressed as the mean ± the standard deviations determined from several independent experiments. The index of selectivity was defined as the ratio of the IC50 value on MRC-5 to that of P. falciparum.

For series [4], the system named is human MRC-5 cells. Put plainly: Cytotoxicity test upon human embryonic cells (MTT). It is filed as cell-based. The method, then: as §3
The test system of series [5] is P. falciparum synchronized cultures. Description: Parasite stage-specific inhibitory effects and reversibility (Giemsa-stained smears). To be noted: for recovery of parasite growth after drug removal: drug removed after 11 hours. The class given is cell-based, Plasmodium falciparum. As for the experimental part:
Synchronized cultures (1–2% parasitemia) at the ring stage (0–10 hours old parasites), the trophozoite stage (25–35 hours old parasites) and the schizonte stage (40–48 hours old parasites) were maintained in the presence of drug concentrations in the vicinity of IC50 values. Aliquots were removed at the indicated times, washed three times with culture medium and maintained in culture in the absence or in the presence of a given drug. […] Parasitaemias were determined by counting 3,000 cells for each sample. Controls consisted of parasites incubated with DMSO instead of drugs processed in the same way.
To investigate the cytostatic or cytotoxic effects of AD2646 on the parasite development, cultures at the ring stage (0–10 hours), the trophozoite stage (25–35 hours) and the schizonte stage (40–48 hours) were incubated with 30, 100 or 250 nM of AD2646 for 24.5 hours for the ring stage, for 11 hours for the trophozoite stage, and for 14 hours for the schizonte stage. Aliquots were then taken, washed and incubated in the absence or the presence of drug for a further 13 hours to 24 hours depending upon the parasite stage tested (see Figure 5). Parasitaemia and parasite stages were determined on Giemsa-stained smears at time of aliquot removal and after the subsequent incubation.

The subject of series [6] is tubovesicular network of P. falciparum. Put plainly: Tubovesicular network formation, BODIPY-FL-C5-ceramide fluorescence microscopy. It is filed as cell-based, Plasmodium falciparum. The method, then: Infected erythrocytes treated with or without ceramide analogs were incubated for 30 min, at 37°C, in culture medium containing 10 μM BODIPY-FL-C5-ceramide, washed three times with culture medium without serum and fixed overnight, at 4°C, in 3.7% formaldehyde/0.05% glutaraldehyde. Cells were mounted on poly-L-lysine coated slides and viewed using a Nikon Eclipse TE 300 DV inverted microscope with an 100X oil objective mounted on a piezzo electric device using appropriate fluorescence emission filters. Image acquisition (z-series) was performed with a back illuminated cooled detector (CCD EEV: NTE/CCD-1024-EB, Roper Scientific, France) using a 0.2 μm step. Data acquisition and image deconvolution process were performed with Metamorph software (Universal Imaging Corporation, Roper Scientific, France). The images presented correspond to the maximum intensity projection of the deconvoluted z-series.

Series [7] deals with erythrocytes. Put plainly: Lysis of normal and infected erythrocytes. It is filed as cell-based, human. Conditions: 250 nM, 48 hours. As for the experimental part:
By their lipidic nature, these analogs might act through a detergent effect that could lead to lysis or modification of the integrity of infected-erythrocyte membranes. This apparently is not the case. No significant lysis of normal erythrocytes was observed after 48 hous of incubation with concentrations of analogs up to 10 μM (data not shown).

Series [8] concerns P. falciparum. Put plainly: Apoptosis of parasites (TdT DNA fragmentation assay, gel electrophoresis, fluorescence microscopy). To be noted: 1 μM for up to 36 hours (unpublished data, preliminary). The class given is cell-based, Plasmodium falciparum. An excerpt:
Ceramide is at the parting of different ways of sphingolipid metabolism. Analogs have the potential to inhibit different ceramide-metabolizing enzymes and then might have a pleiotropic effect. Ceramide analogs in amide linkage were described as potent inhibitors of alkaline ceramidase in HL60 human myeloid leukemic cells. Methylene analogs inhibit the biosynthesis of SPM and glycosphingolipids in HL60 cells, and acid ceramidase in vitro [10]. When applied to cancer cells, such analogs induced an elevation of the endogenous level of ceramide with the consequent effects of growth suppression and cell death by apoptosis. […] Apoptosis in P. falciparum is still controversial although some characteristics of apoptosis has been described in Plasmodium. […] The hypothesis that AD2646 induced parasite death through modulation of endogenous ceramide level, as observed for cancer cells, is under investigation.

In series [9] the test system is CQ-resistant strain K1. Put plainly: Drug combination with antimalarial drugs, strain K1. Conditions: CQ-resistant strain K1 (data not shown). The class given is cell-based, Plasmodium falciparum. From the text: Compound AD2646 (Figure 1) was selected to further investigate the biological effects of methylene analogs on parasite development.

On to `CCCCCCCCCCCCCCN[C@H](CO)[C@H](O)c1ccc([N+](=O)[O-])cc1` [AD2646], for which the “efficiency in inhibiting parasite development relative to PPMP” value in series [1] (AD2646 versus PPMP) is on record as “about 300 times”. The IC90 in series [1] (Plasmodium falciparum, 48 h, Figure 3, series B, strain FcB1, 90% growth inhibition, read-out: CI90 (the source's name)) worked out at 57.7 ± 3.2 nM. Further, the IC50 came out at 30.8 ± 4.6 nM in series [1] (Plasmodium falciparum, Figure 3, series B (methylene or thiourea linkage), strain FcB1, read-out: CI50 (the source's name)); 21 nM in series [2]; 4900 nM in series [4] (Homo sapiens, MRC5, 120 h, MRC-5, five days, MTT, mean of three experiments). In series [3], this compound registered an IC90 at 5 days of 7500 nM. In addition, the Index of selectivity in series [4] (ratio of the IC50 value on MRC-5 cells to that on P. falciparum) was 160. Moreover, the “parasite growth from the ring stage” value in series [5] (ring stage, 100 and 250 nM, no recovery after drug removal at 24 hours) is given as “irreversibly blocked at the young trophozoite stage”. The “development of the ring stage” value in [5] (ring stage, continuous incubation with 30 nM) was “slightly affected”. For the same compound, the “development of the schizont stage” value in series [5] (schizont stage, 30 nM) is “a slight effect was only observed”. The “parasite growth from the schizont stage” value in series [5] (schizont stage, 100 nM) is reported as “irreversibly blocked”. Further, the “recovery of parasite growth after drug removal” value in [5] (trophozoite stage, 30 nM) is recorded as “Only a partial recovery of parasite growth”; in [5] (trophozoite stage, 100 nM) it was “No recovery of parasite growth”. Besides, the “development of the trophozoite stage” value in series [5] (trophozoite stage, continuous incubation with 30 nM) was “completely blocked development”. In series [6] (60 nM), the parasite development result is recorded as “blocks irreversibly the parasite development”. Further, the TVN formation entry in series [6] (rings incubated 24 hours with 60 nM AD2646 or 5 μM PPMP) is reported as “TVN was distinctly observed”. In series [7], the parasite growth entry is reported as “inhibiting parasite growth totally”. Also, the “lysis of infected erythrocytes” value in series [7] (infected cultures, Giemsa-stained smears) was “no preferential lysis of infected-erythrocytes”. Besides, the apoptosis of parasites result in series [8] is reported as “failed to exhibit characteristic apoptosis”. Further, the “drug combination effect with CQ” value in series [9] was “non-synergistic and non-antagonistic effect”.
